Test results as given in US10829530B2, “Analogues of VDAC1-derived peptides” (B. G. NEGEV TECHNOLOGIES AND APPLICATIONS LTD., AT …, priority 2015, dated 2020).
Like-named read-outs stand apart in the source and are kept apart here.

Key:
THP-1 cells = assay: Cell death induction in THP-1 leukemia cells (PI staining, flow cytometry); type: cell-based, human; conditions: THP-1, serum-free medium, 90 min, 37° C.
Description: (§1) Cells in suspension were counted (2×10^6/ml) and treated on the same day whereas adherent cells were counted and seeded (1.5−2×10^5/ml) in 12 wells plate 16-24 h before treatment. Cells in suspension or adherent cells were incubated in serum-free medium (200 μl or 500 μl, respectively) with various concentrations of peptide of interest (for 90 min or 6 h, respectively) at 37° C. in the presence of 5% CO2. Cells were collected (adherent cells by trypsinization), centrifuged (1500×g, 5 min), washed once with PBS and analyzed for cell death using propidium iodide (PI) staining and flow cytometer (Beckton-Dickinson, San Jose, Calif.) and BD CellQuest Pro software.
(§2) PI solution was diluted with PBS to a final concentration of 0.5 mg/ml. 2.5 μl of the PI solution were added to each FACS tube, and the tubes were vortexed gently to homogenize the cell suspension. Cell viability was measured in the FACS channel FL3 and data were analyzed using CellQuest Pro software.
Cells of human monocytic cell line derived from an acute monocytic leukemia patient (THP-1 cells, 400,000 cells per well) were used in this experiment.

BNL1ME cell line = type: cell-based; conditions: serum-free medium, 6 h; for EC50: read-out: EC50 of cell death
Description: as §1, §2
Cells were incubated in a serum-free medium with each peptide type for 6 h at 37° C. in the presence of 5% CO2.

GL-261 cells = assay: Cell death induction in GL-261 glioma cells (PI staining, FACS); type: cell-based, mouse; conditions: GL-261, serum-free medium, 6 h
Description: as §1, §2

A549 = assay: Peptide storage stability, read out as death of A549 cells (PI staining, FACS); type: cell-based; conditions: for activity kept after storage: assayed at 10 μM on A549
Description: The peptide (0.5 mM in 5% DMSO) was incubated at −20° C., 4° C. or 25° C. for the indicated time, and then assayed (at 10 μM) for its capability to induce death of A549 using PI staining and FACS analysis. In untreated cells, cell death was 3%, while with the peptide, cell death was over 90% (n=2).
The assay conditions were as described in FIG. 8A above.

[1] = Peptide solubility (soluble peptide in supernatant, absorbance at 280 nm); type: physicochemical
Description: The peptides were dissolved in 100% DMSO then diluted by about 10-fold to reduce DMSO to 10-11% and the peptide to 4.4 or 4 mM, and the amount of the soluble peptide was analyzed in the supernatant (SUP) following centrifugation to remove insoluble peptide.
The peptides were synthesized by GL Biochem (Shanghai, China) to >95% purity. […] Then the solutions were diluted to peptide concentration of 20 mg/ml (4.86 mM) by adding while mixing 95 μl of distilled water and the diluted solutions were incubated in 37° C. water bath for 30 minutes to allow further solubilization until the solutions became clear. The peptide solutions were then centrifuged for 5 min at 15,000 g and the supernatant of each preparation was transferred to fresh Eppendorf tube with low binding capacity. Aliquots of the obtained solution were taken for further analysis of peptide concentration.
Peptides were dissolved as described hereinabove. Concentration examined was 4 mM; solvent used was DDW/10% DMSO/150 mM NaCl (NaCl added later at a final concentration of 150 mM) as a common physiologically compatible solution for drug administration.
The molecular weight of Tf-D-LP=4111.67 g/mol. […] 8.5 μl DMSO 100% were added to the peptide to form a concentration of 40 mM, and the solution was incubated in a water bath at 37° C. for 15 min until the solution became clear. The solution obtained was diluted by about 10-fold with DDW reaching a final concentration of 4.4 mM (11.1% DMSO), incubated in a water bath at 37° C. for 15 min, and then incubated overnight at 4° C. […] Peptide concentration in each step was analyzed.
Peptide concentration was determined from the absorbance at 280 nm following its denaturation and using the following calculation:
Weight/volume (mg/ml) concentration was calculated according to the equation: mg peptide/ml=(AU×DF×Mw)/[(TrypW #×5560)+(TyrY #×1200)]: • AU—peptide absorbance measured • DF—dilution factor • Mw—Molecular weight • TrypW #—number of Tryptophan in the peptide sequence • TyrY #—number of Tyrosine in the peptide sequence

PANC-1 cells = assay: Cell death induction in PANC-1 pancreatic cancer cells (PI staining, flow cytometry); type: cell-based, human; conditions: PANC-1, serum-free medium, 6 h
Description: as §1, §2
(§3) The human (PANC-1) and mouse (PANC-2) cancerous pancreatic cells were used in this assay. […] Cell death was analyzed by PI staining and percentage of cell death was measured by Flow Cytometery.

PANC-2 cells = assay: Cell death induction in PANC-2 pancreatic cancer cells (PI staining, flow cytometry); type: cell-based, mouse; conditions: PANC-2, serum-free medium, 6 h
Description: as §1, §2, §3

B16F10.0 melanoma cells = assay: Cell death induction in B16F10.0 melanoma cells (PI staining, FACS); type: cell-based, mouse; conditions: B16F10.0, serum-free medium, 6 h
Description: as §1, §2
Cell death was analyzed by PI staining and FACS.

U-87MG = type: cell-based; conditions: Example 7, n=3, read-out: concentration for inducing 50% cell death (EC50)
Description: Human primary glioblastoma tumor-derived cell lines (U-87MG), at 6×10^5 cells per ml were incubated in a serum-free medium with the examined peptide at several concentrations for 6 h at 37° C. in the presence of 5% CO2. […] The cells were then trypsinized, centrifuged (1500×g, 5 min), washed with PBS and analyzed for cell death using PI staining and flow cytometer (Beckton-Dickinson, San Jose, Calif.) and BD CellQuest Pro software.

[2] = test system: glioma-derived stem cell (GSC) line G7; assay: Cell death induction in G7 glioma-derived stem cells (PI staining, flow cytometry); type: cell-based, human; conditions: n=3, read-out: concentration for inducing 50% cell death (EC50)
Description: The G7 GSC cell line was grown using specific glioblastoma stem cell medium, as described previously (Pollard S M et al 2009. Cell Stem Cell. 4(6):568-580.)
The GSC-specific markers, Sox2, Musashi, and Nestin were highly expressed in G7, as compared to U-87MG cells, containing about 1% GSCs, thus confirming the stemness of the cells (FIG. 7B, 7C). Klf4 was expressed in both cell lines with its level in G7 slightly higher. […] Similar results were obtained when apoptosis was assayed using annexinV/PI staining and FACS analysis (FIG. 7E).

U-87MG cells = assay: Intracranial-orthotopic U-87MG xenograft in nude mice (MRI tumor volume, survival); type: in vivo, mouse; conditions: administrated intravenously, inferred from effect on brain tumor
Description: For the intracranial-orthotopic xenograft mouse model, U-87MG cells (8×10^4) were engrafted into a nude mouse brain using a stereotactic device. […] Mice were subjected to MRI and then sacrificed. Brains were excised and processed for IHC. Tumor volume was analyzed using VivoQuant 2.10 software.
25 and 32 days later, tumor growth was monitored by MRI (FIG. 11A).

SMILES	EC50 (THP-1 cells)	maximal cell death induction (BNL1ME cell line)	EC50 (BNL1ME cell line)	EC50 (GL-261 cells)	activity kept after storage (A549; 0.5 mM in 5% DMSO stored at 4° C. or 25° C.)	activity kept after storage (A549; 0.5 mM in 5% DMSO stored at −20° C.)	cell death (A549; A549, 10 μM peptide, n=2, untreated cells 3%)	solubility in 100% DMSO ([1]; 100% DMSO)	soluble peptide out of the total peptide content ([1]; DMSO concentration reduced to 10%, about 4 mM peptide)	EC50 (PANC-1 cells)	EC50 (PANC-2 cells)	EC50 (B16F10.0 melanoma cells)	EC50 (U-87MG)	EC50 [2]	solubility in 100% DMSO [1]	crossing of the blood brain barrier (BBB) (U-87MG cells)
CC[C@H](C)[C@H](NC(=O)[C@H](C)NC(=O)[C@@H](N)Cc1c[nH]cn1)C(=O)N[C@@H](Cc1ccc(O)cc1)C(=O)N1CCC[C@H]1C(=O)N[C@@H](CCCNC(=N)N)C(=O)N[C@@H](Cc1c[nH]cn1)C(=O)N[C@H](CO)C(=O)N[C@H](Cc1c[nH]c2ccccc12)C(=O)N[C@@H](C(=O)N[C@H](Cc1c[nH]c2ccccc12)C(=O)N[C@H](CCC(=O)O)C(=O)N[C@H](CCCCN)C(=O)N[C@H](CCCCN)C(=O)N[C@H](CC(C)C)C(=O)N[C@H](CCC(=O)O)C(=O)N[C@@H](C(=O)N[C@H](C)C(=O)N[C@@H](C(=O)N[C@H](CC(N)=O)C(=O)N[C@H](CC(C)C)C(=O)N[C@H](C)C(=O)N[C@H](Cc1c[nH]c2ccccc12)C(=O)N[C@@H](C(=O)N[C@H](C)C(=O)NCC(=O)N[C@H](CC(N)=O)C(=O)N[C@H](CO)C(=O)N[C@H](CC(N)=O)C(=O)N[C@H](CCCCN)C(=O)N[C@H](Cc1c[nH]c2ccccc12)C(=O)N[C@@H](C(=O)N[C@H](Cc1c[nH]c2ccccc12)C(=O)N[C@H](CCCCN)C(=O)O)[C@H](C)O)[C@H](C)O)C(C)C)[C@H](C)O)[C@H](C)O [Tf-D-LP4, His-Ala-Ile-Tyr-Pro-Arg-His-D-Ser-D-Trp-D-Thr-D-Trp-D-Glu-D-Lys-D-Lys-D-Leu-D-Glu-D-Thr-D-Ala-D-Val-D-Asn-D-Leu-D-Ala-D-Trp-D-Thr-D-Ala-D-Gly-D-Asn-D-Ser-D-Asn-D-Lys-D-Trp-D-Thr-D-Trp-D-Lys]	8 µM	70%	2.7 µM	3.3 µM	75%	full activity	over 90%	high solubility	about 10%							
CC[C@H](C)[C@H](NC(=O)[C@H](Cc1ccc(O)cc1)NC(=O)[C@@H]1CCCN1C(=O)[C@H](CCCNC(=N)N)NC(=O)[C@H](Cc1c[nH]cn1)NC(=O)[C@@H](CO)NC(=O)[C@@H](Cc1c[nH]c2ccccc12)NC(=O)[C@H](NC(=O)[C@@H](Cc1c[nH]c2ccccc12)NC(=O)[C@@H](CCC(=O)O)NC(=O)[C@@H](CCCCN)NC(=O)[C@@H](CCCCN)NC(=O)[C@@H](CC(C)C)NC(=O)[C@@H](CCC(=O)O)NC(=O)[C@H](NC(=O)[C@@H](C)NC(=O)[C@H](NC(=O)[C@@H](CC(N)=O)NC(=O)[C@@H](CC(C)C)NC(=O)[C@@H](C)NC(=O)[C@@H](Cc1c[nH]c2ccccc12)NC(=O)[C@H](NC(=O)[C@@H](C)NC(=O)CNC(=O)[C@@H](CC(N)=O)NC(=O)[C@@H](CO)NC(=O)[C@@H](CC(N)=O)NC(=O)[C@@H](CCCCN)NC(=O)[C@@H](Cc1c[nH]c2ccccc12)NC(=O)[C@H](NC(=O)[C@@H](Cc1c[nH]c2ccccc12)NC(=O)[C@H](N)CCCCN)[C@H](C)O)[C@H](C)O)C(C)C)[C@H](C)O)[C@H](C)O)C(=O)N[C@@H](C)C(=O)N[C@@H](Cc1c[nH]cn1)C(=O)O [Retro-Tf-D-LP4, D-Lys-D-Trp-D-Thr-D-Trp-D-Lys-D-Asn-D-Ser-D-Asn-D-Gly-D-Ala-D-Thr-D-Trp-D-Ala-D-Leu-D-Asn-D-Val-D-Ala-D-Thr-D-Glu-D-Leu-D-Lys-D-Lys-D-Glu-D-Trp-D-Thr-D-Trp-D-ser-His-Arg-Pro-Tyr-Ile-Ala-His]	4.5 µM		2.5 µM	2.2 µM						~4 µM	~4 µM	7 µM	1.5 ± 0.3 µM	2.5 ± 0.3 µM	high solubility	can cross the BBB
